Measurements published in PubChem BioAssay (NCI).
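Growth conditions: 96-well plates. Treatment: test compound, 48 hours, 5 concentrations. Analysis: linear interpolation between bracketing concentrations; unreached endpoints set to highest concentration. Definition used: TGI = concentration required for complete inhibition of growth.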

Tests used:
Assay in all cases: inhibition of tumour cell growth, NCI panel, 48 h
786-0 renal = tested on: 786-0 renal
CCRF-CEM leukemia = tested on: CCRF-CEM leukemia
COLO 205 colon = tested on: COLO 205 colon
EKVX NSCLC = tested on: EKVX NSCLC
HCC-2998 colon = tested on: HCC-2998 colon
HL-60(TB) leukemia = tested on: HL-60(TB) leukemia
HOP-62 NSCLC = tested on: HOP-62 NSCLC
HT29 colon = tested on: HT29 colon
KM12 colon = tested on: KM12 colon
MDA-MB-435 = tested on: MDA-MB-435
MDA-N = tested on: MDA-N
MOLT-4 leukemia = tested on: MOLT-4 leukemia
NCI-H23 lung = tested on: NCI-H23 lung
PC-3 prostate = tested on: PC-3 prostate
RPMI-8226 leukemia = tested on: RPMI-8226 leukemia
RXF 393 renal = tested on: RXF 393 renal
SF-268 CNS = tested on: SF-268 CNS
SK-OV-3 ovarian = tested on: SK-OV-3 ovarian
UACC-257 melanoma = tested on: UACC-257 melanoma
SN12C renal = tested on: SN12C renal

Row | SMILES | TGI (786-0 renal) [µM] | TGI (CCRF-CEM leukemia) [µM] | TGI (COLO 205 colon) [µM] | TGI (EKVX NSCLC) [µM] | TGI (HCC-2998 colon) [µM] | TGI (HL-60(TB) leukemia) [µM] | TGI (HOP-62 NSCLC) [µM] | TGI (HT29 colon) [µM] | TGI (KM12 colon) [µM] | TGI (MDA-MB-435) [µM] | TGI (MDA-N) [µM] | TGI (MOLT-4 leukemia) [µM] | TGI (NCI-H23 lung) [µM] | TGI (PC-3 prostate) [µM] | TGI (RPMI-8226 leukemia) [µM] | TGI (RXF 393 renal) [µM] | TGI (SF-268 CNS) [µM] | TGI (SK-OV-3 ovarian) [µM] | TGI (UACC-257 melanoma) [µM] | TGI (SN12C renal) [µM]
1 | CN(/N=C/c1ccccn1)C1=NCCCN1 | > 100 | > 100 | > 100 | > 100 | > 100 | > 100 | > 100 | > 100 | > 100 | > 100 | > 100 | > 100 | > 100 | > 100 | > 100 | > 100 | > 100 | > 100 | > 100 | –
2 | Nc1cc2ncnn2c(SCC(=O)N/N=C/C(Br)=C\c2ccccc2)n1 | 36.9 | > 100 | 41.1 | > 100 | 40.6 | 62.4 | 87.2 | 28 | 52.7 | 30.9 | 31.6 | 71.7 | 33.1 | 27.7 | 50.1 | 42.2 | – | – | 25.3 | 48.4
3 | CCOC(=O)NN(C(=O)OCC)C(=C(C1=CCCCC1)N1CCOCC1)N(NC(=O)OCC)C(=O)OCC | > 100 | – | > 100 | > 100 | > 100 | > 100 | > 100 | > 100 | > 100 | > 100 | > 100 | > 100 | > 100 | > 100 | > 100 | > 100 | > 100 | > 100 | – | > 100
4 | COc1c(C(C)(C)C)cc(CC2C(=O)C=CC2=O)cc1C(C)(C)C | > 22.3 | 14.9 | 24 | 37.7 | – | 11.3 | 36.9 | 36.1 | 34 | 37.4 | 39.6 | 10.3 | 48.9 | 35.8 | 11.6 | 30.4 | 40 | 56 | 32.4 | > 73
5 | S=C(N/N=C/c1ccccn1)N1CC2CCC(CC2)C1 | 0.242 | – | – | 7.05 | 18.6 | 0.143 | 0.461 | 17.3 | 7.76 | 15.1 | 13.1 | – | 7.7 | 13 | – | 3.19 | 14.8 | 5.7 | < 0.039 | 0.645
6 | CN1C(=O)C(C(=O)Nc2ccccn2)C2C[C@@]1(C)Oc1ccccc12 (some centres undefined) | > 100 | > 100 | > 100 | > 100 | > 100 | > 100 | > 100 | > 100 | > 100 | > 100 | > 100 | > 100 | > 100 | > 100 | > 100 | > 100 | > 100 | > 100 | > 100 | –
